Test results published in patent US20110077702A1, “Means and Methods for Influencing Electrical Activity of Cells” (Academisch Medisch Centrum Bij de Universiteit van Amsterdam, priority 2008, published 2011).
Where two headings read alike, the source gives them in different places.

Tests used:
LBB preparations = assay: Tissue bath studies of LBB preparations of injected animals; parameters: species or system dog
[1] = test system: neonatal rat cardiac myocytes; assay: Spontaneous activity of single control NRCMs with PDE4 inhibition; type: cell-based; conditions: 100 nM rolipram
Protocol: (§1) Neonatal rat cardiac myocytes and CMPCs were transduced with LV-HCN4-GFP, TBX3-GFP and LV-GFP at a MOI of 0.1, HEK 293 cells were transfected with both HCN4 and GFP or EVY deleted HCN4 and GFP. Single electrophysiological cell experiments were performed 7-10 days and 2 months after transducing NRCMs and CMPCs, respectively, or after the HEK 293 transfection. Myocytes were trypsinized during 30 seconds to prepare them for patch-clamping. By this procedure, cardiac myocytes lost their cell-to-cell connections, became less flattened (which facilitated the use of glass micropipettes), but remained attached to the coverslip.
Action potentials, If and membrane currents were recorded at 36±0.2° using the perforated patch-clamp technique (Axopatch 200B Clamp amplifier, Axon Instruments Inc.). Signals were low-pass filtered (cut-off frequency: 5-kHz) and digitized at 5-kHz. Series resistance was compensated by ≧80%, and potentials were corrected for the estimated 15-mV change in liquid-junction potential. For voltage control, data acquisition, and analysis, custom-made software was used. Superfusion solution contained (mM): 140 NaCl, 5.4 KCl, 1.8 CaCl2, 1.0 MgCl2, 5.5 glucose, 5 HEPES; pH 7.4 (NaOH). Pipettes (2-3 MΩ, borosilicate glass) were filled with solution containing (mM): 125 K-gluc, 20 KCl, 5 NaCl, 0.22 amphotericin-B, 10 HEPES; pH 7.2 (KOH).

[2] = test system: neonatal rat cardiac myocytes overexpressing HCN4; assay: If activation curve, perforated patch-clamp, in HCN4 overexpressing NRCMs with PDE4 inhibition; type: cell-based; conditions: 100 nM rolipram
Protocol: as §1
Action potentials, If and membrane currents were recorded at 36±0.2° using the perforated patch-clamp technique (Axopatch 200B Clamp amplifier, Axon Instruments Inc.). Signals were low-pass filtered (cut-off frequency: 5-kHz) and digitized at 5-kHz. Series resistance was compensated by ≧80%, and potentials were corrected for the estimated 15-mV change in liquid-junction potential. […]
If was characterized using custom voltage-clamp protocols modified from those published previously.^14,27 For current-voltage (I-V) relationships and activation properties, If was measured as Cs^+ sensitive (5 mM) current during 6-s hyperpolarizing steps (range −30 to −110 mV) from a holding potential of −30 mV. […]

Structure (SMILES): COc1cc2c(cc1OC)CC(=O)N(CCCN(C)C[C@H]1Cc3cc(OC)c(OC)cc31)CC2 [Ivabradine]
- spontaneous rate of HCN2/SkM1 preparation (LBB preparations; isoproterenol enhanced rhythm, HCN2/SkM1 injected animals): reductions in rate

Structure (SMILES): CC(C)NCC(O)c1ccc(O)c(O)c1 (stereo not shown) [isoproterenol, Isoproterenol]
- spontaneous rate of HCN2/SkM1 preparation (LBB preparations): robust spontaneous activity sensitive to isoproterenol

Structure (SMILES): COc1ccc(C2CNC(=O)C2)cc1OC1CCCC1 (stereo not shown) [rolipram]
- spontaneous activity [1]: remarkable increase in spontaneous activity
- shift in the If activation curve [2]: rightward shift in the If activation curve
